Results taken from ChEMBL document CHEMBL1201862, “PubChem BioAssay data set” (2004).
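Assay format: 96-well plates, 48-hour exposure. GI50 marks 50% less growth.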 The source made the active and inactive calls. Rule as the data show it: active = GI50 up to about 1.1 µM and inactive = higher.

Legend:
Assay in all cases: growth of human tumour cells (NCI), 48 h
HCT-15 = tested on: HCT-15
SNB-19 = tested on: SNB-19
A549 = tested on: A549
CAKI-1 = tested on: CAKI-1
SF-295 = tested on: SF-295
HOP-62 = tested on: HOP-62
SNB-75 = tested on: SNB-75
ACHN = tested on: ACHN
786-0 = tested on: 786-0
RPMI-8226 = tested on: RPMI-8226
MDA-MB-435 = tested on: MDA-MB-435
SK-OV-3 = tested on: SK-OV-3
Malme-3M = tested on: Malme-3M
SK-MEL-5 = tested on: SK-MEL-5
IGROV-1 = tested on: IGROV-1
UACC-257 = tested on: UACC-257
SR = tested on: SR
UACC-62 = tested on: UACC-62
SK-MEL-28 = tested on: SK-MEL-28

| SMILES | GI50 (HCT-15) | GI50 (SNB-19) | GI50 (A549) | GI50 (CAKI-1) | GI50 (SF-295) | GI50 (HOP-62) | GI50 (SNB-75) | GI50 (ACHN) | GI50 (786-0) | GI50 (RPMI-8226) | GI50 (MDA-MB-435) | GI50 (SK-OV-3) | GI50 (Malme-3M) | GI50 (SK-MEL-5) | GI50 (IGROV-1) | GI50 (UACC-257) | GI50 (SR) | GI50 (UACC-62) | GI50 (SK-MEL-28) |
| --- | --- | --- | --- | --- | --- | --- | --- | --- | --- | --- | --- | --- | --- | --- | --- | --- | --- | --- | --- |
| CC1=C2C3=C(C)C(=O)C(C)(C)CC[C@@]3(C)[C@]2(C)CCC(C)(C)C1=O | > 100 µM | > 100 µM (inactive) | > 100 µM (inactive) | > 100 µM (inactive) | > 100 µM (inactive) | > 100 µM (inactive) | > 100 µM (inactive) | > 100 µM (inactive) | > 100 µM (inactive) | > 100 µM (inactive) | > 100 µM (inactive) | > 100 µM (inactive) | > 100 µM (inactive) | > 100 µM (inactive) | > 100 µM (inactive) | > 100 µM (inactive) | > 100 µM (inactive) | > 100 µM (inactive) |  |
| Cc1ccc(C)c(NC(=O)C(=O)C(c2cnc3ccc([N+](=O)[O-])cc3n2)[N+](=O)[O-])c1 (configuration not stated) | 76.6 µM | > 100 µM (inactive) | 58.3 µM (inactive) |  | > 100 µM (inactive) | 20.9 µM (inactive) | 81.7 µM (inactive) | 26.6 µM (inactive) | 52.8 µM (inactive) | 0.102 µM (active) | 46.2 µM (inactive) | 32.4 µM (inactive) | > 100 µM (inactive) | 48.3 µM (inactive) | 26.5 µM (inactive) | 38.6 µM (inactive) | 34.4 µM (inactive) | 64.1 µM (inactive) | > 100 µM (inactive) |
| Cc1ccc(S(=O)(=O)c2[nH]cc(/C(=C\C3CCCCC3)[N+](=O)[O-])c2C2CCCCC2)cc1 | 0.199 µM | 1.75 µM (inactive) | 1.71 µM (inactive) | 0.22 µM (active) |  | 1.41 µM (inactive) | 1.82 µM (inactive) | 0.366 µM (active) | 0.199 µM (active) | 0.251 µM (active) | 0.398 µM (active) |  | 0.564 µM (active) | 0.318 µM (active) | 0.314 µM (active) | 0.393 µM (active) | 0.281 µM (active) | 0.234 µM (active) | 0.802 µM (active) |
| Nc1ccc(Cc2ccc(/N=C\c3ccc(OCc4cccc(COc5ccc(/C=N\c6ccc(Cc7ccc(N)cc7)cc6)cc5)n4)cc3)cc2)cc1 | > 100 µM | 41.7 µM (inactive) | > 100 µM (inactive) | > 100 µM (inactive) | 50.1 µM (inactive) | 37.5 µM (inactive) | 13.2 µM (inactive) | > 100 µM (inactive) | 65.9 µM (inactive) | > 100 µM (inactive) | > 100 µM (inactive) |  | 63.1 µM (inactive) | > 100 µM (inactive) | > 100 µM (inactive) | > 100 µM (inactive) | > 100 µM (inactive) | > 100 µM (inactive) | > 100 µM (inactive) |
| CCSc1nn(-c2c3ccccc3nc3ccccc23)c(=S)s1 | > 100 µM | > 100 µM (inactive) | > 100 µM (inactive) | > 100 µM (inactive) | > 100 µM (inactive) | > 100 µM (inactive) | 61.9 µM (inactive) | > 100 µM (inactive) | > 100 µM (inactive) | > 100 µM (inactive) | > 100 µM (inactive) | > 100 µM (inactive) |  | > 100 µM (inactive) | > 100 µM (inactive) | > 100 µM (inactive) | > 100 µM (inactive) | > 100 µM (inactive) | > 100 µM (inactive) |
| Cc1nn(C(=O)c2ccncc2)c2c1C(c1ccccc1[N+](=O)[O-])SC(=N)N2 (configuration not stated) | > 10 µM | > 10 µM (inactive) | > 10 µM (inactive) | > 10 µM (inactive) | > 10 µM (inactive) | > 10 µM (inactive) | > 10 µM (inactive) | > 10 µM (inactive) | > 10 µM (inactive) | > 10 µM (inactive) | > 10 µM (inactive) |  | > 10 µM (inactive) | > 10 µM (inactive) | > 10 µM (inactive) | > 10 µM (inactive) | > 10 µM (inactive) | > 10 µM (inactive) | > 10 µM (inactive) |
| COc1ccccc1-c1cc(O)c2cccnc2n1 | 23.7 µM | 69.2 µM (inactive) | 55 µM (inactive) | 29.4 µM (inactive) | 67.9 µM (inactive) | > 100 µM (inactive) |  | 64.1 µM (inactive) | 76 µM (inactive) | 44.1 µM (inactive) | 23.4 µM (inactive) | 58.1 µM (inactive) | 37.8 µM (inactive) | 31.4 µM (inactive) | 22.5 µM (inactive) | 37.8 µM (inactive) | > 100 µM (inactive) | 47.5 µM (inactive) | 82 µM (inactive) |
| CC(C)=CCC/C(C)=C/COc1c2ccoc2cc2oc(=O)ccc12 [BERGAMOTTIN] | 30.4 µM | 32.3 µM (inactive) | 24.9 µM (inactive) | 44 µM (inactive) | 25.4 µM (inactive) | 43.4 µM (inactive) |  | 22.8 µM (inactive) | 32.4 µM (inactive) | 17.1 µM (inactive) | 34.6 µM (inactive) | 27.5 µM (inactive) | 33.5 µM (inactive) | 14.9 µM (inactive) | 39.5 µM (inactive) | 24.7 µM (inactive) | 15.2 µM (inactive) | 10.7 µM (inactive) | 59.2 µM (inactive) |
| COC(=O)c1cc2c(cc1C(=O)OC)[C@@]1(C)CCCC(C)(C)C1CC2 (some centres not stated) | 17.1 µM | 23.7 µM (inactive) | 19.4 µM (inactive) |  | 16.3 µM (inactive) | 23.8 µM (inactive) | 30 µM (inactive) | 20.7 µM (inactive) | 19.5 µM (inactive) | 10.7 µM (inactive) | 30.2 µM (inactive) |  | 1.22 µM (inactive) | 16.2 µM (inactive) | 10.4 µM (inactive) | 19.5 µM (inactive) | 15.1 µM (inactive) | 12.2 µM (inactive) | 26.3 µM (inactive) |
| COC(=O)c1scc(N)c1-n1ccc(=O)[nH]c1=O | > 100 µM | > 100 µM (inactive) | > 100 µM (inactive) | > 100 µM (inactive) |  |  | > 100 µM (inactive) | > 100 µM (inactive) | > 100 µM (inactive) | > 100 µM (inactive) | > 100 µM (inactive) |  | > 100 µM (inactive) | > 100 µM (inactive) | > 100 µM (inactive) | > 100 µM (inactive) | > 100 µM (inactive) | > 100 µM (inactive) | > 100 µM (inactive) |
| COc1cc(/C=C/C2=NN(c3cccc(S(=O)(=O)O)c3)C3(C2)C(Cl)C(=O)N3c2nc3ccccc3s2)ccc1O (configuration not stated) | 16.7 µM | 65.9 µM (inactive) | 31 µM (inactive) | 17 µM (inactive) |  |  | 21.7 µM (inactive) | 16.7 µM (inactive) | 17.4 µM (inactive) | 16.1 µM (inactive) | 17.1 µM (inactive) |  | 19.7 µM (inactive) | 23.6 µM (inactive) | 13.7 µM (inactive) | 19.9 µM (inactive) | 15.6 µM (inactive) | 18.5 µM (inactive) | 25.1 µM (inactive) |
| C=CCSC1=N/C(=C\c2ccco2)C(=O)N1CC=C | 57.9 µM | > 100 µM (inactive) | 79.1 µM (inactive) | 70.6 µM (inactive) | 71.1 µM (inactive) | > 100 µM (inactive) |  | 34.1 µM (inactive) | > 100 µM (inactive) | 28.2 µM (inactive) | 52.5 µM (inactive) | > 100 µM (inactive) | > 100 µM (inactive) | 37.5 µM (inactive) | > 100 µM (inactive) | 77.6 µM (inactive) | 25.4 µM (inactive) | 39.4 µM (inactive) | 72.4 µM (inactive) |
| CCOC(=O)c1ccc(NC2Oc3cc4c(cc3C(c3cc(OC)c(OC)c(OC)c3)C2C)OCO4)cc1 (configuration not stated) | 0.506 µM | 0.617 µM (active) | 0.847 µM (active) | 0.325 µM (active) | 0.269 µM (active) | 0.789 µM (active) | 0.304 µM (active) | 0.769 µM (active) | 0.556 µM (active) | 0.296 µM (active) | 0.148 µM (active) | 0.483 µM (active) | 0.216 µM (active) | 0.294 µM (active) | 0.48 µM (active) |  | 0.296 µM (active) | 0.46 µM (active) | 32.4 µM (inactive) |
| CCOC(=O)C1CCCN1C(=O)c1ccccc1Cl (configuration not stated) | > 100 µM | > 100 µM (inactive) | > 100 µM (inactive) | > 100 µM (inactive) | > 100 µM (inactive) | > 100 µM (inactive) | > 100 µM (inactive) | > 100 µM (inactive) | > 100 µM (inactive) | > 100 µM (inactive) | > 100 µM (inactive) |  | > 100 µM (inactive) | > 100 µM (inactive) | > 100 µM (inactive) | > 100 µM (inactive) | > 100 µM (inactive) | 22 µM (inactive) | > 100 µM (inactive) |
| O=c1[nH]c(=O)c2c([nH]1)[nH]c1ccccc12 | > 100 µM | > 100 µM (inactive) | > 100 µM (inactive) | > 100 µM (inactive) | > 100 µM (inactive) | > 100 µM (inactive) | > 100 µM (inactive) | > 100 µM (inactive) | > 100 µM (inactive) | > 100 µM (inactive) | > 100 µM (inactive) | > 100 µM (inactive) | > 100 µM (inactive) | > 100 µM (inactive) | > 100 µM (inactive) | > 100 µM (inactive) | > 100 µM (inactive) | > 100 µM (inactive) |  |
| CCOC(=O)Cc1nc2c(N)ncnc2n1C1OC(COC(C)=O)C(OC(C)=O)C1OC(C)=O (configuration not stated) | > 100 µM | > 100 µM (inactive) | > 100 µM (inactive) | > 100 µM (inactive) | > 100 µM (inactive) | > 100 µM (inactive) |  | > 100 µM (inactive) | > 100 µM (inactive) | > 100 µM (inactive) | > 100 µM (inactive) | > 100 µM (inactive) | > 100 µM (inactive) | > 100 µM (inactive) | > 100 µM (inactive) | > 100 µM (inactive) | > 100 µM (inactive) | > 100 µM (inactive) | > 100 µM (inactive) |
